Source: US10450321B2, “[1,2,3]triazolo[4,5-D]pyrimidine derivatives” (Hoffmann-La Roche Inc., priority 2016, dated 2019)
pKi: −log10 of the molar value. Like-named read-outs stand apart in the source and are kept apart here.

Columns and labels:
human CB2 receptor = human CB2 receptor (Homo sapiens (Human), UniProt P34972); assay: Radioligand binding assay, [3H]-CP-55,940, HEK cell membranes expressing human CNR2
Protocol: (§1) Radioligand Binding Assay
(§2) The affinity of the compounds of the invention for cannabinoid receptors was determined using recommended amounts of membrane preparations (PerkinElmer) of human embryonic kidney (HEK) cells expressing the human CNR1 or CNR2 receptors in conjunction with 1.5 or 2.6 nM [3H]-CP-55,940 (Perkin Elmer) as radioligand, respectively. Binding was performed in binding buffer (50 mM Tris, 5 mM MgCl2, 2.5 mM EDTA, and 0.5% (wt/vol) fatty acid free BSA, pH 7.4 for CB1 receptor and 50 mM Tris, 5 mM MgCl2, 2.5 mM EGTA, and 0.1% (wt/vol) fatty acid free BSA, pH 7.4 for CB2 receptor) in a total volume of 0.2 mL for 1 h at 30° C. shaking. The reaction was terminated by rapid filtration through microfiltration plates coated with 0.5% polyethylenimine (UniFilter GF/B filter plate; Packard). Bound radioactivity was analyzed for Ki using nonlinear regression analysis (Activity Base, ID Business Solution, Limited), with the Kd values for [^3H]CP55,940 determined from saturation experiments.

human CB1 receptor = human CB1 receptor (Homo sapiens (Human), UniProt P21554); assay: Radioligand binding assay, [3H]-CP-55,940, HEK cell membranes expressing human CNR1
Protocol: as §1, §2

[1] = membranes of HEK cells expressing human CNR2, 2.6 nM [3H]-CP-55,940, 1 h at 30° C., read-out: human CB2 Ki
[2] = membranes of HEK cells expressing human CNR1, 1.5 nM [3H]-CP-55,940, 1 h at 30° C., read-out: human CB1 Ki

human CB1 receptor, sequence (P21554 whole entry): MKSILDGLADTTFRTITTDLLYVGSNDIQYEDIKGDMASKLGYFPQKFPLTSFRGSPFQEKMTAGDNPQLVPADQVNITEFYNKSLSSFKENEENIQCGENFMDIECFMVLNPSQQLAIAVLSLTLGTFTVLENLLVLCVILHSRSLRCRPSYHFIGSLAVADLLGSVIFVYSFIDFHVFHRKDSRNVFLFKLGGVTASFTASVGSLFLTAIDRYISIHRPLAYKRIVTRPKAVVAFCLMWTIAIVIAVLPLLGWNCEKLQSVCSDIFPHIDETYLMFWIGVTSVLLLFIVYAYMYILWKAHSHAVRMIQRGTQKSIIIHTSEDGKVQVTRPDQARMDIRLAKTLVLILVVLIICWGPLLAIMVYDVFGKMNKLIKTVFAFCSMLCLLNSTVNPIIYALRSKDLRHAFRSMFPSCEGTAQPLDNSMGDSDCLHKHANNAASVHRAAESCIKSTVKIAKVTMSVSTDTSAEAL
human CB2 receptor, sequence (P34972 whole entry): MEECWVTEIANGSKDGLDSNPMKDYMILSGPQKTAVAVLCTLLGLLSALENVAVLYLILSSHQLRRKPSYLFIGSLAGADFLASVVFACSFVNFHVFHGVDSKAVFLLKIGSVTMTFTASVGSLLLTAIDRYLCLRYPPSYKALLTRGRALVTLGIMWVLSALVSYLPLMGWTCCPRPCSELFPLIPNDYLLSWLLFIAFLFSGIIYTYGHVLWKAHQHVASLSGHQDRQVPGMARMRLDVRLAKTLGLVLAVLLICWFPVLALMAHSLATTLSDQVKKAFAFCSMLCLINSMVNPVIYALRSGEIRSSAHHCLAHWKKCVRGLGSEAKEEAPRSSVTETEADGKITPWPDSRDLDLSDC

SMILES | pKi (human CB2 receptor) | pKi (human CB1 receptor) | pKi (human CB2 receptor; [1]) | pKi (human CB1 receptor; [2])
CC(C)(C)c1nc(N2CC[C@H](O)C2)c2nn(Cc3ccccc3S(=O)(=O)F)nc2n1 [Example 1, 2-({5-tert-Butyl-7-[(3S)-3-hydroxypyrrolidin-1-yl]-2H-[1,2,3]triazolo[4,5-d]pyrimidin-2-yl}methyl)benzene-1-sulfonyl fluoride] | 5.93 | < 5.00 | – | –
CC(C)(C)c1nc(N2CCC(F)(F)C2)c2nn(Cc3ccccc3CS(=O)(=O)F)nc2n1 [Example 2, (2-{[5-tert-Butyl-7-(3,3-difluoropyrrolidin-1-yl)-2H-[1,2,3]triazolo[4,5-d]pyrimidin-2-yl]methyl}phenyl)methanesulfonyl fluoride] | 6.20 | < 5.00 | – | –
CC(C)(C)c1nc(N2CC[C@H](O)C2)c2nn(Cc3ccccc3CN=C=S)nc2n1 [Example 3, (3S)-1-(5-tert-Butyl-2-{[2-(isothiocyanatomethyl)phenyl]methyl}-2H-[1,2,3]triazolo[4,5-d]pyrimidin-7-yl)pyrrolidin-3-ol] | – | – | 6.28 | < 5.00
CC(C)(C)c1nc(N2CCC(F)(F)C2)c2nn(Cc3ccccc3N=C=S)nc2n1 [Example 4, 5-tert-Butyl-7-(3,3-difluoropyrrolidin-1-yl)-2-[(2-isothiocyanatophenyl)methyl]-2H-[1,2,3]triazolo[4,5-d]pyrimidine] | – | – | 6.34 | < 5.00
CC(C)(C)c1nc(N2CCC(F)(F)C2)c2nn(Cc3ccccc3S(=O)(=O)F)nc2n1 [Example 5, 2-{[5-tert-Butyl-7-(3,3-difluoropyrrolidin-1-yl)-2H-[1,2,3]triazolo[4,5-d]pyrimidin-2-yl]methyl}benzene-1-sulfonyl fluoride] | 6.44 | < 5.00 | – | –
CC(C)(C)c1nc(N2CCC(F)(F)C2)c2nn(Cc3ccccc3CN=C=S)nc2n1 [Example 6, 5-tert-Butyl-7-(3,3-difluoropyrrolidin-1-yl)-2-{[2-(isothiocyanatomethyl)phenyl]methyl}-2H-[1,2,3]triazolo[4,5-d]pyrimidine] | – | – | 6.68 | 5.31
C#Cc1cccc(S(=O)(=O)F)c1Cn1nc2nc(C(C)(C)C)nc(N3CCC(F)(F)C3)c2n1 [Example 7, 2-[[5-tert-Butyl-7-(3,3-difluoropyrrolidin-1-yl)triazolo[4,5-d]pyrimidin-2-yl]methyl]-3-ethynylbenzenesulfonyl fluoride] | 6.38 | < 5.00 | – | –
